The results in this text go back to PMC4578755, “Development of novel cellular histone-binding and chromatin-displacement assays for bromodomain drug discovery” (Epigenetics & Chromatin, 2015).

For test [1], the target named is T1, TRIM24-PB binding to endogenous histone H3 in HeLa TRIM24-PB cells (Homo sapiens, UniProt O15164).
T1 construct: The FLAG-TRIM24-PB construct (residues 810–1050) was generated by PCR amplification; expressed in transfected cells
T1 sequence (O15164 810-1050): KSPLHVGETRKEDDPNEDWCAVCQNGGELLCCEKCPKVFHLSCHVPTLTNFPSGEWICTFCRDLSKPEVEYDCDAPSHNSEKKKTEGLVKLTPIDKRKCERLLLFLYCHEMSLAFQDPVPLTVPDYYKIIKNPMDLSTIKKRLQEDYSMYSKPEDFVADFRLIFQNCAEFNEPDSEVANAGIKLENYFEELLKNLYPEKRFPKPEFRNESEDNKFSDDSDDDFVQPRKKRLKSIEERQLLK
In words: Cellular TRIM24/histone H3 AlphaLISA binding assay. The test is classed as cell-based. Particulars: co-treated with SAHA, 2 h, 6 independent experiments, listed as TRIM24 inhibitor, read-out: Cell EC50 (AlphaLISA). The method, then:
Hela TRIM24-PB cells were maintained in DMEM medium supplemented with 10 % FBS and 5 µg/mL of Blasticidin. Cells were seeded (10,000/well, 40 µL) to 384-well white culture plates (PerkinElmer, #6007680) using a Multidrop 384 reagent dispenser (Thermo Scientific) and incubated overnight at 37 °C and 5 % CO2. On Day 2, the cells were co-treated with SAHA (10 µM) and test compound and incubated at 37 °C and 5 % CO2 for 2 h. The plates were washed twice with PBS (60 µL at RT) using a Biomek FX liquid handler (Beckman Coulter). […] Plates were read on Envision plate reader (PerkinElmer) using AlphaScreen protocol and all IC50 values (four-parameter logistic curve) were obtained using GraphPad Prism 6 software. […]
All EC50 values were calculated based on these POC values using four-parametric nonlinear regression (i.e., curve fitting) software (either Genedata Screener™ software version 11 or Graphpad Prism 6). For the cell-based AlphaLISA assay, the POC values were calculated using the following wells and process: (1) a “blank subtraction” was performed by subtracting the mean signal of the blank control wells (which contained media but lacked cells) from all of the measured values; (2) these corrected values were then used in the POC formula stated above. […] Average and standard Deviation (SD) values were calculated using the Harmony software (PerkinElmer). […]
Background: Alpha assays give light when donor and acceptor beads are brought close together.

Test [2] deals with T2, TRIM24-PB/histone H3 co-localization in HeLa TRIM24-PB cells (Homo sapiens, UniProt O15164).
T2 construct: The FLAG-TRIM24-PB construct (residues 810–1050) was generated by PCR amplification; expressed in transfected cells
T2 sequence (O15164 810-1050): T1 sequence (O15164 810-1050)
In words: Proximity ligation assay (PLA) TRIM24/histone H3. In kind it is cell-based. To be noted: SAHA treatment; Alexa-conjugated secondary antibodies. On the procedure: Hela cells expressing FLAG-TRIM24-PHD-Bromo-V5 (TRIM24-PB) (20 K/100 µL) were seeded into 96-well plates (Corning Costar #CLS3603) in DMEM media supplemented with 10 % FBS and grown overnight. After treatment with SAHA (5 µM, 2 h), plates were washed with PBS (150ul per well) and fixed with 4 % paraformaldehyde (10 min at RT). PLA was performed using Duolink® In situ Red Starter Kit Mouse/Goat (Sigma-Aldrich, DUO92103), according to manufacturer’s recommendation. Primary antibody pair was: Goat anti-V5 (1:200 dilution; Bethyl #A190-119A) and Mouse anti-histone H3 (1:4000 dilution; Active Motif, #39763). Following PLA, secondary antibody Alexa Fluor®594 Donkey Anti-Goat (Invitrogen #A-11056) and Alexa Fluor®488 Donkey Anti-Mouse (Invitrogen #A-21202) were used to measure the total levels of V5 and histone H3. Using the High-Content Screening System Operetta with 40× magnification, cell images from 25 fields in each well were taken in 4 channels (Alexa488, Alexa594, Alexa647 and Hoechst). […] For each gated cell, we calculated the mean signal intensity for histone H3 (Alexa488 in the nucleus minus Alexa488 in the cytoplasm); TRIM24 (Alexa594 in the nucleus minus the […] intensity in the cytoplasm); and the mean number for the PLA signal (number of spots in nucleus). […]

`Cc1nc(S(=O)(=O)Nc2cc3c(cc2Oc2cccc(OCC(C)C)c2)n(C)c(=O)n3C)cn1C` [IACS-6558, N-{1,3-dimethyl-6-[3-(2-methylpropoxy)phenoxy]-2-oxo-2,3-dihydro-1H-1,3-benzodiazol-5-yl}-1,2-dimethyl-1H-imidazole-4-sulfonamide]: the EC50 – broadly, the concentration needed to bring the measured effect to its halfway point – in test [1] came to 1.3 µM.

For the molecule `O=C(CCCCCCC(=O)Nc1ccccc1)NO` [SAHA, Suberoylanilide Hydroxamic Acid], the “Mean nuclei levels of TRIM24” value in test [2] is “did not change”.
